The results in this text go back to BindingDB's records for patent US20230399327 (Adlai Nortye Biopharma Co., 2023).

Structures are written as SMILES.

For this assay, the target named is Mitogen-activated protein kinase kinase kinase kinase 1 (Homo sapiens, UniProt Q92918). In words: Detection of Compound's Ability to Inhibit HPK1 Kinase Activity Assay. As to the method:
The specific operation is as follows: configure the enzymatic reaction system buffer (10 mM MOPS, pH 7.2, 5 mM β-glycerol-phosphate, 10 mM MgCl2, 0.8 mM EDTA, 2 mM EGTA, 0.1 mM DTT); the test compound (1 mM the compound stock solution in DMSO) was diluted with buffer to the highest concentration of 60 uM (containing 6% DMSO), and the compound with a concentration of 60 μM was initially diluted 5 times with a buffer containing 6% DMSO for a total of 8 points of gradient concentration; then dilute HPK1 kinase to 30 nM in buffer. Add 2 μl of HPK1 kinase diluent to each well of a Greiner 384-well microplate (Cat. No. 784075), and add 2 μl of buffer to the control well; add 1 μl of the diluted compound to the reaction well after brief centrifugation, and add 1 μl buffer solution containing 6% DMSO to the control well; after short centrifugation, place in a 25° C. constant temperature incubator (Shanghai Yiheng Scientific Instrument Co., Ltd., Cat. No.: LRH-150) and incubate for 20 minutes. Add 3 μl of reaction substrate (10 μM MBP and 20 μM ATP dissolved in distilled water) to each well, briefly centrifuge and incubate in a constant temperature incubator at 25° C. for 60 min, and use ADP-Glo Kinase Assay Kit to detect the enzymatic reaction activity, ADP-Glo Kinase Assay Kit detection is carried out according to the operating instructions of the kit. Data are described using the half maximal inhibitory

Sequence of Mitogen-activated protein kinase kinase kinase kinase 1 (Q92918 whole entry): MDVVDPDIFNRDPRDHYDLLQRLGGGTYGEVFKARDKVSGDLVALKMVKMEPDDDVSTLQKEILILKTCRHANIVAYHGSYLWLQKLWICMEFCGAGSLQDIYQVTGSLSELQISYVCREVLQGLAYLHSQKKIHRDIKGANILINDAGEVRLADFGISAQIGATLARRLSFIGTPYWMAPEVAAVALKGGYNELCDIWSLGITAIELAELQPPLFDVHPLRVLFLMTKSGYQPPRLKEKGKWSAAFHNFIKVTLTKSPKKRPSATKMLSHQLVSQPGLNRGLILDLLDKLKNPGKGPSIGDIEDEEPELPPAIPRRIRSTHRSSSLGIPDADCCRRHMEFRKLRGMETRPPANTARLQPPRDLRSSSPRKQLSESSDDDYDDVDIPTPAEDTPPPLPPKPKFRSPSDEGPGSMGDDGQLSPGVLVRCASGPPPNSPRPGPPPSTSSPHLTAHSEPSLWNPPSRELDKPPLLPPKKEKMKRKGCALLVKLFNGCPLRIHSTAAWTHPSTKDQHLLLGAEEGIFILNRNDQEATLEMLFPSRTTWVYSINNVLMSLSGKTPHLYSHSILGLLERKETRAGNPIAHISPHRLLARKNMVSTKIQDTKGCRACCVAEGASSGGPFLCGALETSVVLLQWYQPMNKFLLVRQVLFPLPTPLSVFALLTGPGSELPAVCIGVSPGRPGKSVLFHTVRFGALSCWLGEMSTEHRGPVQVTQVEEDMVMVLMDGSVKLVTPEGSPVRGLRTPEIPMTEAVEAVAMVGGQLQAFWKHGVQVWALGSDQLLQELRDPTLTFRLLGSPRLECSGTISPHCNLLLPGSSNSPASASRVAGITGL

`COc1nc2c(cc1Nc1ncc3cccc(-c4ccccc4)c3n1)CN(C)CC2` [US20230399327, Example 1] displayed an IC50 of under 0.1 nM.

In turn, `COc1nc2c(cc1Nc1ncc3cccc(-c4cnn5ccccc45)c3n1)CN(C)CC2` [US20230399327, Example 2] came in with an IC50 of under 0.1 nM.

`COc1nc2c(cc1Nc1ncc3ccnc(C4=CCOCC4)c3n1)CN(C)CC2` [US20230399327, Example 26] yielded an IC50 of 8.31 nM. This counts as single-digit nanomolar. Next, `CN1CCc2[nH]c(=O)c(Nc3ncc4ccnc(NCC(C)(C)CO)c4n3)cc2C1` [US20230399327, Example 70]: 0.29 nM. The molecule `CN1CCc2[nH]c(=O)c(Nc3ncc4ccnc(N5CCSCC5)c4n3)cc2C1` [US20230399327, Example 72] registered an IC50 of 21.2 nM.

Molecule `CN1CCc2[nH]c(=O)c(Nc3ncc4ccnc(N5CCCCCC5)c4n3)cc2C1` [US20230399327, Example 73] displayed a concentration for half-maximal inhibition (IC50) of 0.41 nM. Under `C[C@@H]1CCCCN1c1nccc2cnc(Nc3cc4c([nH]c3=O)CCN(C)C4)nc12` [US20230399327, Example 76] stands under 0.1 nM; under `CN1CCc2[nH]c(=O)c(Nc3ncc4ccnc(NCC5(C)CC5)c4n3)cc2C1` [US20230399327, Example 77], under 0.1 nM; under `CN1CCc2c(cc(Nc3ncc4ccnc(N5CCC(F)(F)CC5)c4n3)c(=O)n2C)C1` [US20230399327, Example 79], under 0.1 nM. Under `CN1CCc2c(cc(Nc3ncc4ccnc(N5CCC(F)(F)C5)c4n3)c(=O)n2C)C1` [US20230399327, Example 85] stands 25.3 nM; under `CCOc1nc2c(cc1Nc1ncc3ccnc(N[C@H](CO)C(C)C)c3n1)CN(C)CC2` [US20230399327, Example 89], under 0.1 nM; under `COc1nc2c(cc1Nc1ncc3ccnc(N[C@H](CO)C(C)C)c3n1)CN(C)CC2` [US20230399327, Example 91], 21.5 nM. Under `CCOc1nc2c(cc1Nc1ncc3ccnc(N[C@@H]4CCC[C@H]4O)c3n1)CN(C)CC2` [US20230399327, Example 95] stands 18.1 nM; under `CCOc1nc2c(cc1Nc1ncc3ccnc(N[C@H]4CC[C@@H](O)C4)c3n1)CN(C)CC2` [US20230399327, Example 98], 0.44 nM.

As to `COc1nc2c(cc1Nc1ncc3ccnc(N4CCC[C@H]4CO)c3n1)CN(C)CC2` [US20230399327, Example 101], the IC50 was under 0.1 nM. For `CCOc1nc2c(cc1Nc1ncc3ccnc(N4CCC[C@H]4CO)c3n1)CN(C)CC2` [US20230399327, Example 106], the IC50 was found to be 15.4 nM. The molecule `COc1nc2c(cc1Nc1ncc3ccnc(N4CC(F)(F)C[C@H]4CO)c3n1)CN(C)CC2` [US20230399327, Example 108] displayed an IC50 of under 0.1 nM. Next, `COc1nc2c(cc1Nc1ncc3ccnc(NC(C)(C)CO)c3n1)CN(C)CC2` [US20230399327, Example 109]: under 0.1 nM; `CC[C@H](CO)Nc1nccc2cnc(Nc3cc4c(nc3OC)CCN(C)C4)nc12` [US20230399327, Example 110]: under 0.1 nM. Next, `COc1nc2c(cc1Nc1ncc3ccnc(NCC(C)(C)O)c3n1)CN(C)CC2` [US20230399327, Example 111]: under 0.1 nM; `COc1cc2c(cc1Nc1ncc3ccnc(N[C@@H](CO)C(C)C)c3n1)CN(C)CC2` [US20230399327, Example 112]: under 0.1 nM.

As a reminder, the IC50 is the concentration at which inhibition is half-maximal. Low values mean higher potency, high ones lower potency.
